Key:
Dopaminergic D3 = Dopaminergic D3 (Homo sapiens, UniProt P35462); assay: CNS receptor binding assay, D3; details: MAP4343 10 µM; [^3H] spiperone; Human recombinant (CHO cells); read-out: % Inhibition of control specific binding
Protocol: (§1) MAP4343 has been screened for in vitro affinity to 80 different CNS neurotransmitters receptors using various validated binding assays.
(§2) Table 4. In vitro affinity of MAP4343 (10 µM) for CNS neurotransmitter receptors associated with side effects and/or abuse liability. Data are the average of two individual assays for each receptor and are expressed as % inhibition of the control specific binding of the reference compound. Results showing an inhibition higher than 50% are considered to represent significant effects of the test compound.

[1] = target: T1, Muscarinic (Cholinergic) M1 (Homo sapiens, UniProt P11229); assay: CNS receptor binding assay, M1; details: MAP4343 10 µM; [^3H] pirenzepine; Human recombinant (CHO cells); read-out: % Inhibition of control specific binding
T1 construct: expressed in transfected cells; host or cells: CHO cells
Protocol: as §1, §2

Serotoninergic 5-HT5A = Serotoninergic 5-HT5A (Homo sapiens, UniProt P47898); assay: CNS receptor binding assay, 5-HT5A; details: MAP4343 10 µM; [^3H] LSD; Human recombinant (CHO cells); read-out: % Inhibition of control specific binding
Protocol: as §1, §2

[2] = target: Noradrenergic Transporter (Homo sapiens, UniProt P23975); assay: CNS receptor binding assay, noradrenergic transporter; details: MAP4343 10 µM; [^3H] nisoxetine; Human recombinant (CHO cells); read-out: % Inhibition of control specific binding
Protocol: as §1, §2

Serotoninergic 5-HT7 = Serotoninergic 5-HT7 (Homo sapiens, UniProt P34969); assay: CNS receptor binding assay, 5-HT7; details: MAP4343 10 µM; [^3H] LSD; Human recombinant (CHO cells); read-out: % Inhibition of control specific binding
Protocol: as §1, §2

[3] = target: T2, human progesterone receptor(PR) (Homo sapiens, UniProt P06401); assay: Test of progesterone receptor agonist activity (MMTV-luciferase transactivation in transfected HEK293T cells); assay type: cell-based; details: 24 hours, increasing amounts, Figure 1
T2 construct: expressed in transfected cells; host or cells: HEK293T
T2 sequence (P06401 1-933): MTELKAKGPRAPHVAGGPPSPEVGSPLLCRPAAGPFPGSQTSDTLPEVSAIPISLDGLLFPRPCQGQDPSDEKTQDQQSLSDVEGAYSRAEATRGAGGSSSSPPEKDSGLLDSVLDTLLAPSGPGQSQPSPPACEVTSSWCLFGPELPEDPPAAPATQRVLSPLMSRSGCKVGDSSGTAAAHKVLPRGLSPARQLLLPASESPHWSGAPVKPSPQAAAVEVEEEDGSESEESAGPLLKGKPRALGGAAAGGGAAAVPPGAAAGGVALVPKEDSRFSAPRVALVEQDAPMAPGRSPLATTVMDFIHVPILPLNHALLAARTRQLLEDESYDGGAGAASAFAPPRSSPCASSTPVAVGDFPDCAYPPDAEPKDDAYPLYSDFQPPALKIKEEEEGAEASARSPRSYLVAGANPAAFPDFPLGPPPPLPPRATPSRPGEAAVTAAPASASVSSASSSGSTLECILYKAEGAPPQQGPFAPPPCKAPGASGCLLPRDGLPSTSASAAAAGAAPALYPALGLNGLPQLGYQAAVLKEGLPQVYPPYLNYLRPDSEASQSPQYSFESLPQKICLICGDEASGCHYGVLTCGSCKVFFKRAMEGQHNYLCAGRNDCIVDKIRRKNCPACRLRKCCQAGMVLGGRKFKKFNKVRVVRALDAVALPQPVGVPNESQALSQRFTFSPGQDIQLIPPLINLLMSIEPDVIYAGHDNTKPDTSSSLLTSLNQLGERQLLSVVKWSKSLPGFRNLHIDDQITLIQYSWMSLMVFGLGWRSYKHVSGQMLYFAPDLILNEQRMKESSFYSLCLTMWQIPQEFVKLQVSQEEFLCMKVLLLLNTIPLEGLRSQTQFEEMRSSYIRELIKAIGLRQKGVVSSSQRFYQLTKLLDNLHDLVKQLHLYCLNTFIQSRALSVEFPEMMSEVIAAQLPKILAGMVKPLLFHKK
Protocol: (§3) The main experimental setting used is the following: HEK293T cells were transiently transfected, using calcium phosphate precipitation technology, with expression vectors pSG5hPR (which permits expression of human progesterone receptor(PR)), pFC31-luc (contains the luciferase gene under the control of the MMTV promoter, which is in turn activated by binding of a progestin to progesterone receptor) and pcbetagal (which permits expression of betagalactosidase), and cultured during 24 hours with increasing amounts of various compositions: • 1. […] Test of progesterone receptor […] activity: transfected cells were cultured with progesterone (1 nM) and increasing amounts of RU486 (a well-known progesterone receptor antagonist) or 3-methoxy-pregnenolone. With this setting, a compound with progesterone receptor antagonist activity competes with progesterone for the occupation of progesterone receptor and results in a progressive loss of transactivation activity when the amount of this compound is increased compared to progesterone.

Oppioid δ2 = Oppioid δ2 (Homo sapiens, UniProt P41143); assay: CNS receptor binding assay, opioid δ2; details: MAP4343 10 µM; [^3H] DADLE; Human recombinant (CHO cells); read-out: % Inhibition of control specific binding
Protocol: as §1, §2

[4] = target: T3, Muscarinic (Cholinergic) M4 (Homo sapiens, UniProt P08173); assay: CNS receptor binding assay, M4; details: MAP4343 10 µM; [^3H] 4-DAMP; Human recombinant (CHO cells); read-out: % Inhibition of control specific binding
T3 construct: expressed in transfected cells; host or cells: CHO cells
Protocol: as §1, §2

Androgen Receptor (AR) = target: T4, Androgen Receptor (AR) (Rattus norvegicus, UniProt P15207); assay: Radioligand binding assay, steroid hormone receptor AR; details: MAP4343 10 µM; 1.5 nM [^3H] Mibolerone; Rat recombinant E. coli
T4 construct: host or cells: E. coli
Protocol: Binding affinity of 3β-methoxy-PREG (MAP4343) for receptors of steroid hormones was evaluated using radioligand binding assays.
Table 3. Affinity of MAP4343 (10 µM) for steroid hormones receptors measured by radioligand binding assays. […] None of the results met significance criteria at concentrations used.

[5] = target: T2, human progesterone receptor(PR); assay: Test of progesterone receptor antagonist activity (MMTV-luciferase transactivation in transfected HEK293T cells, with progesterone 1 nM); assay type: cell-based; details: 24 hours, progesterone 1 nM plus increasing amounts, Figure 2
Protocol: as §3

Noradrenergic α1 = assay: CNS receptor binding assay, α1; details: MAP4343 10 µM; [^3H] prazosin; rat cerebral cortex
Protocol: as §1, §2

T4 sequence (P15207 615-902 limits assumed): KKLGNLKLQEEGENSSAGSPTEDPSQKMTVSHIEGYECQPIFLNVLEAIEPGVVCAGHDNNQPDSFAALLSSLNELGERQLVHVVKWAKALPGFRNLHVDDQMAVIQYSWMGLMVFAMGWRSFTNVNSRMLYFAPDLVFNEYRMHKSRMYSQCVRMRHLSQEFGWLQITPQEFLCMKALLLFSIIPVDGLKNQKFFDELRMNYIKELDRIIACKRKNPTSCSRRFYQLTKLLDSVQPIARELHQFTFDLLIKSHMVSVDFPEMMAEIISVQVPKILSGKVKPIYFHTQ
Sequence of Noradrenergic Transporter (P23975 whole entry): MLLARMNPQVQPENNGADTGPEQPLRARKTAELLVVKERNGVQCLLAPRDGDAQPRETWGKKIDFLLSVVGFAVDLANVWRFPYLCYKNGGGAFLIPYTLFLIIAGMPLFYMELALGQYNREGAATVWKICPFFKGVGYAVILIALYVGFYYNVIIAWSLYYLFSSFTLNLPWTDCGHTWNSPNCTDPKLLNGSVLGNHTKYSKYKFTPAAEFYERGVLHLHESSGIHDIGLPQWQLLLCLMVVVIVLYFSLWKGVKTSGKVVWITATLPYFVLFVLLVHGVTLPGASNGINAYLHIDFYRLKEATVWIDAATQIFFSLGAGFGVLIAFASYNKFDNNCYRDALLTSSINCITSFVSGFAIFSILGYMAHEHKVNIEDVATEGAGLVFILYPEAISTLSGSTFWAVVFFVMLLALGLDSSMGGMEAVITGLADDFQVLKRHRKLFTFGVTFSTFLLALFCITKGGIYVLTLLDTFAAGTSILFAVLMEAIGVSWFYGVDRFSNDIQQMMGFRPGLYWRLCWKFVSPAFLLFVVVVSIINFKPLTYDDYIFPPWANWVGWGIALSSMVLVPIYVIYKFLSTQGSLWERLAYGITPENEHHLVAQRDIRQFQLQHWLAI
Sequence of Serotoninergic 5-HT7 (P34969 whole entry): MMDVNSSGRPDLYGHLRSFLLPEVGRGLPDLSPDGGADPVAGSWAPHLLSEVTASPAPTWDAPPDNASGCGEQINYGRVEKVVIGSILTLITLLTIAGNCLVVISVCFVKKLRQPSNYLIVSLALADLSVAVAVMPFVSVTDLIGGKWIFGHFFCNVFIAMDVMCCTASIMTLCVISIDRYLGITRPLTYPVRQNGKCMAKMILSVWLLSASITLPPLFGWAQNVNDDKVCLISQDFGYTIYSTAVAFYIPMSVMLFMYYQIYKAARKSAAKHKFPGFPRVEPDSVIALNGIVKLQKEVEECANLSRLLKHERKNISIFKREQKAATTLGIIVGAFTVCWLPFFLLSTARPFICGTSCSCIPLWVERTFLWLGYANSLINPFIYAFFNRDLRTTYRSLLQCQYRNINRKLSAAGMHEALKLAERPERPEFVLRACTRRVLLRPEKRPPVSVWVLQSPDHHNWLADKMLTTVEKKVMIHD
Sequence of Serotoninergic 5-HT5A (P47898 whole entry): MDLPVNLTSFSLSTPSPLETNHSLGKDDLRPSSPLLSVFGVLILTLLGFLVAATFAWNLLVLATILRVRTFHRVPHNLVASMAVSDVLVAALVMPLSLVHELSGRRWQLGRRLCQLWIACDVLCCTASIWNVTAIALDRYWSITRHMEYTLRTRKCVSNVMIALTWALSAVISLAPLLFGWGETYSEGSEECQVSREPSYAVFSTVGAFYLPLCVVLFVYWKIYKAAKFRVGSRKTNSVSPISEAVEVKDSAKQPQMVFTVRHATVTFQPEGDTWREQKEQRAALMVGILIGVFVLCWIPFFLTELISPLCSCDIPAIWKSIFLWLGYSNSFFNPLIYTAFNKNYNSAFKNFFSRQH
Sequence of Oppioid δ2 (P41143 whole entry): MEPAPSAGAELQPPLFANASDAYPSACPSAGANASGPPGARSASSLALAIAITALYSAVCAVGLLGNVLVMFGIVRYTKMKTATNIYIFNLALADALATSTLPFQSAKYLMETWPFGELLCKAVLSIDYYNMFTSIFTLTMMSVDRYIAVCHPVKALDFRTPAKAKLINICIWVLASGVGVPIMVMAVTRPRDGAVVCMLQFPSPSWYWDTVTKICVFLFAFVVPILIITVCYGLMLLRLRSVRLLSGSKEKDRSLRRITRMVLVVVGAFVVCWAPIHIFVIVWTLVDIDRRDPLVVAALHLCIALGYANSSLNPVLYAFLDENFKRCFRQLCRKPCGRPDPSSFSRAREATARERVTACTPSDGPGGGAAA
Sequence of Dopaminergic D3 (P35462 whole entry): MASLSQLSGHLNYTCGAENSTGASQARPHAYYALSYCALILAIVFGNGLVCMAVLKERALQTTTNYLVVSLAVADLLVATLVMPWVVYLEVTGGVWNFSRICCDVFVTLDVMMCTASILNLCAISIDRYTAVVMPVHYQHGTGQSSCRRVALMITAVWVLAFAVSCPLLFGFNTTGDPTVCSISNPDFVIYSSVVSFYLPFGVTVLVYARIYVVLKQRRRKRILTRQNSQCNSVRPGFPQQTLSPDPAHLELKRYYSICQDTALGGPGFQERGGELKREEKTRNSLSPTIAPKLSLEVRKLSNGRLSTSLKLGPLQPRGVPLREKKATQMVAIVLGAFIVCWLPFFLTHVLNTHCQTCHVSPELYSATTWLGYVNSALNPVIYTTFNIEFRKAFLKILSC
T3 sequence (P08173 whole entry): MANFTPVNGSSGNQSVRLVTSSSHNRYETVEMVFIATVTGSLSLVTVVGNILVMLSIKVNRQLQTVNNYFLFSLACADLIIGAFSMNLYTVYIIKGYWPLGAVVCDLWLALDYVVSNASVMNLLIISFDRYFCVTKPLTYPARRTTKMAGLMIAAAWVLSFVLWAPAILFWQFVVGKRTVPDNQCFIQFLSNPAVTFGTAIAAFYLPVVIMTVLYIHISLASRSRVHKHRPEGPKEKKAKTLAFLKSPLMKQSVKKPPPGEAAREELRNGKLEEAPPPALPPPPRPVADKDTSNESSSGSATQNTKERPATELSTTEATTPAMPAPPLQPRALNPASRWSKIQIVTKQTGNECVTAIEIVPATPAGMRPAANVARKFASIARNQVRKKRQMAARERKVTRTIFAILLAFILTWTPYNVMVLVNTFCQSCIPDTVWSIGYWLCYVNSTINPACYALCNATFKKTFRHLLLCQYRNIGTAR
T1 sequence (P11229 whole entry): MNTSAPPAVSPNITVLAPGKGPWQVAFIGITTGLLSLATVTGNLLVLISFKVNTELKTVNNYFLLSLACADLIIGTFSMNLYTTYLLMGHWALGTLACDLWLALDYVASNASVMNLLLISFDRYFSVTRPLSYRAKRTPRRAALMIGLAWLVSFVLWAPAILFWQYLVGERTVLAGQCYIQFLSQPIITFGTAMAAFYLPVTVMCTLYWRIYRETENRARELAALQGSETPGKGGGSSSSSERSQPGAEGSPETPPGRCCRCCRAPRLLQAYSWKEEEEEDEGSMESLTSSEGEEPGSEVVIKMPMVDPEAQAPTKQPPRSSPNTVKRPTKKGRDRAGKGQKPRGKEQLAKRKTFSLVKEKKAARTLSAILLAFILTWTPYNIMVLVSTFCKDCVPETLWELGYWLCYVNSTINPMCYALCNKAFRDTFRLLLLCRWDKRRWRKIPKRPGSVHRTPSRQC

## CO[C@H]1CC[C@@]2(C)C(=CC[C@H]3[C@@H]4CC[C@H](C(C)=O)[C@@]4(C)CC[C@@H]32)C1 (stereo in doubt) [MAP4343, 3β-methoxy-pregna-5-ene-20-one]
Dopaminergic D3
  inhibition at 10 µM: 8%
[1]
  inhibition at 10 µM: -3%
Serotoninergic 5-HT5A
  inhibition at 10 µM: -5%
[2]
  inhibition at 10 µM: 3%
Serotoninergic 5-HT7
  inhibition at 10 µM: -11%
[3]
  progesterone receptor agonist activity (transactivation activity leading to the expression of luciferase): does not permit such a transactivation activity
Oppioid δ2
  inhibition at 10 µM: -3%
[4]
  inhibition at 10 µM: 20%
Androgen Receptor (AR)
  % inhibition: 18%
  inhibition at 10 µM: < 25%
[5]
  progesterone receptor antagonist activity: weak progesterone receptor antagonist
Noradrenergic α1
  % Inhibition of control specific binding: 4%

Source: patent EP3436024B1, “3-BETA-METHOXY-PREG FOR USE IN THE TREATMENT OF TREATMENT RESISTANT DEPRESSION” (Mapreg, priority 2016, dated 2017)
